Values joined by “and” are separate entries in the source; they are usually repeats but may differ in a detail not shown here. Equal values may be shown once. Read-outs that look alike come from different tables or passages of the source.
Columns and labels:
[1] = tested on: chloroform-induced ventricular fibrillation; experiment: Chloroform-induced ventricular fibrillation in the mouse; assay type: in vivo
Text: In this technique first described by LAWSON, J. W. in J. Pharm. Exp. Ther. 1968, 160, 22 and Vargaftig, B. B. et al in Eur. J. Pharmacol. 1969, 6, 49, the inhalation of chloroform vapour produced in the mouse apnea followed by ventricular fibrillation.
The mechanism of this technique remains unknown.

[2] = tested on: polymorphous arrhythmias induced by adrenaline petrol-ether; experiment: Polymorphous arrhythmias induced in the anaesthetised guinea-pig by adrenaline and petrol ether; assay type: in vivo
Text: Adrenaline in high dosage is a powerful arrhythmogenic stimulus to a myocardia induced by petrol ether, as recognized in the guinea-pig by LE MARECHAL J., Thesis Doct.

[3] = tested on: ventricular fibrillation induced by CaCl2; experiment: Calcium (CaCl2) induced ventricular fibrillation in the anaesthetized rat, Malinow's technique; assay type: in vivo
Description: According to MALINOW, M. R., et coll. Acta. Physiol Latino. Americ.
Using the anaesthetized rat, 200 mg/kg of CaCl2 was injected two minutes after the substances to be tested. The ECG was recorded continuously in lead II.

[4] = tested on: ventricular tachycardia induced by ouabaine; experiment: Ouabain induced ventricular tachycardia in the anesthetized guinea-pig; assay type: in vivo; conditions: 5 and 10 mg/kg
Description: This test is used to determine the dose of ouabain administered by slow infusion necessary to obtain the appearance of ventricular extrasystoles. The animal used was the guinea pig and the substances were administered intravenously.

[5] = tested on: ventricular tachycardia induced by Ouabain; experiment: Ouabain induced ventricular tachycardia in the dog (Lucchesi and Hardman); assay type: in vivo; conditions: at the average effective dose
Text: The method used is that of […] and HARDMAN, J. Pharmacol. Exp. Ther. 1961, 132, 372-381. Ventricular tachycardia was obtained by the sequential administration of Ouabain until a permanent ventricular tachycardia developed. Following observation of the effect of the substance, the reappearance of this ventricular tachycardia following the injection of insulin was confirmed, thereby showing the persistence within the heart of a toxic dose of Ouabain (Average dose of Ouabain 71.25 γ kg IV).

[6] = tested on: isolated guinea-pig atrial; experiment: Stimulated isolated guinea pig atrial (technique of Dawes); assay type: cell-based
Text: (§1) The technique of DAWES (modified by ALLIES ET AL.) was used with the isolated guinea-pig atrial, and the technique of DUCHENE-MARULLAZ, J. Pharmacol. Paris, 1970, 1, 539, in the anaesthetized dog. This method is used to study the permeability of atrio-ventricular conduction, and thus more precisely conduction at the level of Tawara's nod.

[7] = tested on: atrio-ventricular conduction; experiment: Atrio-ventricular conduction in the anaesthetized dog (Duchene-Marullaz); assay type: in vivo
Text: as §1

[8] = tested on: rabbit cornea oculo-palpebral reflex; assay type: in vivo; conditions: for TOTAL DEGREE OF ANAESTHESIA FOR 60 minutes: rabbit cornea, total 13 no anaesthesia, 1300 complete
Text: For the purpose of this study, the classical technique of REGNIER J., Thesis Doct. […] This consists of repeating touching of the rabbit cornea until an oculo-palpebral reflex is obtained. It should be noted that […], in common with the reference substances, was used in the form of the HCl Salt.

rat aortic fragments [9] = experiment: Contraction of rat aorta fragment induced by potassium depolarisation; assay type: cell-based; conditions: for pD'2: pD'2 = pDx + log (x - 1)
Description: (§2) Fragments of aorta removed from rats are immersed in survival fluid in the presence of carbogene at 37° C. By modifying the ionic equilibrium of the survival medium, it was possible to study the effects of […] on contraction of the aortic fragments induced by depolarisation with potassium or calcium.

rat aortic fragments [10] = experiment: Competitive antagonism of calcium dose/effect curve of contraction of rat aortic fragment; assay type: cell-based; conditions: competitive inhibition versus calcium
Description: as §2

[11] = Tolerance of normal healthy adult male subjects to cetiedil given by intravenous infusion; assay type: in vivo, human
[12] = cited from earlier work
in vivo = conditions: mouse, iv

Structure (SMILES): O=C(OCCN1CCCCCC1)C(c1ccsc1)C1CCCCC1 (stereo not drawn) [citrate monohydrate of α-cyclohexyl-3-thiopheneaceticacid 2-(hexahydro-1H-azepin-1-yl)ethyl ester]
- activity relative to propranolol ([1]; chloroform induced fibrillation in the mouse): ten times less powerful than propranolol
- ED50 ([1]; mouse, chloroform vapour inhalation, IP, read-out: ED50): ~50 mg/kg
- ED50 ([2]; Cavia porcellus, ip, guinea-pig, urethane 1.2 g/kg IP, substance 5 minutes before intoxication, read-out: ED50 (dose decreasing by half the duration of the disturbances)): ~1.2 mg/kg
- index I = LD50 IV/ED50 ([2]; Table 1, adrenaline petrol-ether, guinea-pig ED50, mouse LD50): 47.50
- activity relative to the reference β-blocker ([2]; guinea pig, adrenaline and petrol-ether): three times less active than the reference β-blocker
- index LD50/AD50 (ventricular fibrillation) ([3]; Table 2): 18,69
- index LD50/AD50 (death) ([3]; Table 3): 16.29
- AD 50 protection against ventricular fibrillation ([3]; anaesthetized rat, CaCl2 200 mg/kg IV two minutes after substance): 3,50 mg/kg/IV
- ED50 ([3]; anaesthetized rat, CaCl2 200 mg/kg IV two minutes after substance, read-out: AD 50 protection against ventricular fibrillation): 3.5 mg/kg
- threshold before the development of cardiac disturbances [4]: significant increase
- duration of return to sinus rhythm [5]: more than 30 min
- % DECREASE SPONTANEOUS RATE ([6]; concentration 10^-5): 26%
- % DECREASE m.f.s. (maximum frequency followed by the atrial) ([6]; concentration 10^-5): 27%
- % DECREASE SPONTANEOUS RATE ([6]; concentration 10^-6): 6%
- % DECREASE m.f.s. (maximum frequency followed by the atrial) ([6]; concentration 10^-6): 14%
- % DECREASE SPONTANEOUS RATE ([6]; concentration 10^-7): 9%
- % DECREASE m.f.s. (maximum frequency followed by the atrial) ([6]; concentration 10^-7): 6%
- negative bathmotropic effect ([6]; concentration of 1.10^-6): identical to that of Quinidine and less than that of Propranolol
- effect on atrio-ventricular conduction after denervation ([7]; anaesthetized dog, denervated): not altered by denervation
- effect on atrio-ventricular conduction ([7]; anaesthetized dog, intact): significant depression which was proportional to the dose injected
- chronotropic effect ([7]; dog): absence of any significant negative chronotropic effects
- effects on contractile force of the myocardia ([7]; dog, doses of 2.5 and 5 mg/kg): slight
- local anaesthetic effects relative to cocaine ([8]; rabbit): twice as great as those of cocaine
- TOTAL DEGREE OF ANAESTHESIA FOR 60 minutes ([8]; 0.25 g./100, HCl salt): 393.2
- TOTAL DEGREE OF ANAESTHESIA FOR 60 minutes ([8]; 0.50 g./100, HCl salt): 798.8
- duration of complete local anaesthesia ([8]; rabbit, local instillation, concentration of 0.5%): 15 min
- IC50 (rat aortic fragments [9]; in the presence of 1.26 mM of calcium, read-out: concentration reducing by half the force of contraction): 6 µM
- pD'2 (mean) (rat aortic fragments [9]; mean ± SD, potassium depolarisation): 5.23 ± 0.05 and 5.23
- x (rat aortic fragments [9]; single experiment, cetiedil concentration 1 (pDx 6.00)): 1.16
- pD'2 (rat aortic fragments [9]; single experiment, cetiedil concentration 1): 5.20
- x (rat aortic fragments [9]; single experiments, cetiedil concentration 5 (pDx 5.30)): 1.50 and 2.17
- pD'2 (rat aortic fragments [9]; single experiments, cetiedil concentration 5): 5.00 and 5.37
- x (rat aortic fragments [9]; single experiments, cetiedil concentration 10 (pDx 5.00)): 2.78 and 3.24 and 2.70
- pD'2 (rat aortic fragments [9]; single experiments, cetiedil concentration 10): 5.25 and 5.35 and 5.23
- pA2 (rat aortic fragments [10]): 6.27
- overall safety conclusion ([11]; 0.359 mg/kg infused 9 times over a 10 day-period): safe drug
- abnormalities in electrocardiograms, blood chemistry, hematologic profiles, urine analyses ([11]; 10 volunteers, 0.359 mg/kg, 9 infusions over 10 days): no significant abnormalities
- subjects with doubtful elevation in SGOT value ([11]; after completion of study-period, of 10): 2 subjects
- average duration of side effects after completion of infusion ([11]; after the first infusion): 72.9 min
- subjects complaining of side effects ([11]; after the first infusion): 7 subjects
- duration of side effects ([11]; after the ninth infusion): 15 min
- subjects complaining of side effects ([11]; after the ninth infusion): 3 subjects
- K+ level ([11]; another subject, after completing the study): slight reduction
- Ca++ level ([11]; one subject, after completing the study): minimal elevation
- systemic blood pressure ([11]; one to four hours after infusion): slightly decreased
- Pulse rate ([11]; usually one hour after the infusion): slightly reduced
- share of circulating radio-activity due to a metabolite ([12]; 5 minutes after intravenous injection of 0.25 mg): half
- digestive absorbtion ([12]; C14): excellent
- Rectal absorption ([12]; in vivo): relatively low, and above all, very slow
- Biliary excretion ([12]; individual with a biliary drain): no more than 11%
- terminal half-life of plasma radio-activity ([12]; man, 0.25 mg intravenous, C14): approximately five
- terminal half-life of urinary excretion ([12]; man, C14): ~26 h
- radio-activity excreted in the urines ([12]; man, intact biliary circulation): approximately 65%
- plasma radioactivity following oral administration ([12]; man, versus intravenous injection): markedly higher than after intravenous injection
- urinary excretion ([12]; patient who had undergone surgery): 42%
- radio-active transformation substance in urine ([12]; urine passed 1 hour following the injection): 100%
- LD50 (in vivo): 57 mg/kg

From patent US4377592A, “Antiarrhythmic activity of cetiedil” (Innothera, priority 1979, dated 1983)
